Reference: paper PMC3692398 (Biochemical pharmacology, 2013)
Read-outs that look alike come from different tables or passages of the source.

Key:
human DA D1 receptor = human DA D1 receptor (Homo sapiens, UniProt P21728); assay: [3H]SCH23390 binding, LhD1 cells; conditions: test drugs up to the maximal concentration tested (10 µM)
hSERT [1] = target: T1, hSERT (Homo sapiens, UniProt P31645); assay: Superfusion release of preloaded [3H]5-HT from HEK-hSERT cells; format: cell-based; conditions: for EC50: read-out: Drug-induced release of [3H]neurotransmitter EC50 ± sem, hSERT [3H]5-HT, superfusion, AUC
T1 sequence (P31645 whole entry, the tested form may be a part): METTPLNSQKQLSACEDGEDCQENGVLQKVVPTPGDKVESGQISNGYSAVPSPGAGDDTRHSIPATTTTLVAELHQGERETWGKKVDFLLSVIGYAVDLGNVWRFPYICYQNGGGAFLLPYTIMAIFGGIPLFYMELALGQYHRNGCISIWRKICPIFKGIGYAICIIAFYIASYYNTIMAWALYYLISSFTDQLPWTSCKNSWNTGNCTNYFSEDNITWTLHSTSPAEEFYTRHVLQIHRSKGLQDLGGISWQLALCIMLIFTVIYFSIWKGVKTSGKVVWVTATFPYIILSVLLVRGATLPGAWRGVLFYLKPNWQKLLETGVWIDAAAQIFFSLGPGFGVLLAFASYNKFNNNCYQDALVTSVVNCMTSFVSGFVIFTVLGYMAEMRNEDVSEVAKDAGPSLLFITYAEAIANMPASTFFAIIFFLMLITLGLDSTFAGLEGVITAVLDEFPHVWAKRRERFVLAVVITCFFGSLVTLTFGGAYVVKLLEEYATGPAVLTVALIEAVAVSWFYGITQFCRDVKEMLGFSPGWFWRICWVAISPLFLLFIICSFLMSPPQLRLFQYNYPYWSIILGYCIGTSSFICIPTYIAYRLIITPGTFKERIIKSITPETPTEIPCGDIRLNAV

h5-HT2A receptor [2] = target: T2, h5-HT2A receptor (Homo sapiens, UniProt P28223); assay: Inhibition of 5-HT-stimulated IP-1 formation; format: cell-based; conditions: 100 nM 5-HT
T2 sequence (P28223 whole entry): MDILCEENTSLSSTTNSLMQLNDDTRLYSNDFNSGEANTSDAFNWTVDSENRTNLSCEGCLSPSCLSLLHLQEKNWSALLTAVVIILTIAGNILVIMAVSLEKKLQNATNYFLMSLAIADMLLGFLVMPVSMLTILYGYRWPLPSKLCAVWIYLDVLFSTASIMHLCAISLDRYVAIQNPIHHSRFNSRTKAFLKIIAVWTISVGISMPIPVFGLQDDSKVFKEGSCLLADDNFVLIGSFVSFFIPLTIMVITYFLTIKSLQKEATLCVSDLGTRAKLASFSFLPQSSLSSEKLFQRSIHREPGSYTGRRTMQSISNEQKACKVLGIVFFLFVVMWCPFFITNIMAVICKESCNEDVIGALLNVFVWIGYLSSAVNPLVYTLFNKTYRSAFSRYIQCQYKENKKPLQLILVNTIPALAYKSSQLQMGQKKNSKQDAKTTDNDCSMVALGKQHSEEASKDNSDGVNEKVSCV

hVMAT2 [3] = target: T3, hVMAT2 (Homo sapiens, UniProt Q05940); assay: Inhibition of [3H]DHTB binding, HEK-hVMAT2 membranes; conditions: read-out: Inhibition of [3H]DHTB binding Ki ± sem, hVMAT2
T3 sequence (Q05940 whole entry): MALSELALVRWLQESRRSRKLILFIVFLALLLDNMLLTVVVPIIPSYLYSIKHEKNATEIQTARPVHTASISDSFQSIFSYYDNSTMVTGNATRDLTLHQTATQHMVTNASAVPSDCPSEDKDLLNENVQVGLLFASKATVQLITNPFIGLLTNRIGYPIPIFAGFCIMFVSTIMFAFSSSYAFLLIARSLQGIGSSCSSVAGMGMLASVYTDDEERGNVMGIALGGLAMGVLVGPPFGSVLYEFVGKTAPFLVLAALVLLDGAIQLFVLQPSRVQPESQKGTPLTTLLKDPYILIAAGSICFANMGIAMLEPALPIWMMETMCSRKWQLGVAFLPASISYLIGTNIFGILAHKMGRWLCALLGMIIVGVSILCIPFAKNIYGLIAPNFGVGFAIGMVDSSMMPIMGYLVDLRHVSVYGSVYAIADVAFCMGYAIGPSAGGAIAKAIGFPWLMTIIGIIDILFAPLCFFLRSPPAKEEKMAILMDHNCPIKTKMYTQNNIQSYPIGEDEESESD

hNET [4] = target: T4, hNET (Homo sapiens, UniProt P23975); assay: cell-based; format: cell-based
T4 sequence (P23975 whole entry): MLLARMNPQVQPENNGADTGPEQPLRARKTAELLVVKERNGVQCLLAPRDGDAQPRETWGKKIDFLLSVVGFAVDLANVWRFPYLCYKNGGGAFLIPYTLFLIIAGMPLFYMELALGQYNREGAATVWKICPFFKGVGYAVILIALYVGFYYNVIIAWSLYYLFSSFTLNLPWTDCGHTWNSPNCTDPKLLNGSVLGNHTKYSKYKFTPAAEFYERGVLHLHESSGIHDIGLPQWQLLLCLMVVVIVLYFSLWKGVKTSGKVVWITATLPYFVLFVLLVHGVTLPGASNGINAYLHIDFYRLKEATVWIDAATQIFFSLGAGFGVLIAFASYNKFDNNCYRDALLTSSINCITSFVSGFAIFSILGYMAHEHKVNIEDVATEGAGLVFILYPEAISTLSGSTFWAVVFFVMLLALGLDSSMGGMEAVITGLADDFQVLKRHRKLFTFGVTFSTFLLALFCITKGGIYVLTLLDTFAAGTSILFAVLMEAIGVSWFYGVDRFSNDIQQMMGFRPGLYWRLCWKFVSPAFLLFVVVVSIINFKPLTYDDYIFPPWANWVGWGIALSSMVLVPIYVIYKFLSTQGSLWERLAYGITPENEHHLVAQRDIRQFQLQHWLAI

h5-HT1A receptor [5] = target: T5, h5-HT1A receptor (Homo sapiens, UniProt P08908); assay: [3H]8-OH-DPAT binding, HEK-h5-HT1A; conditions: read-out: Inhibition of radioligand binding Ki ± sem, h5-HT1A [3H]8OH-DPAT
T5 sequence (P08908 1-422): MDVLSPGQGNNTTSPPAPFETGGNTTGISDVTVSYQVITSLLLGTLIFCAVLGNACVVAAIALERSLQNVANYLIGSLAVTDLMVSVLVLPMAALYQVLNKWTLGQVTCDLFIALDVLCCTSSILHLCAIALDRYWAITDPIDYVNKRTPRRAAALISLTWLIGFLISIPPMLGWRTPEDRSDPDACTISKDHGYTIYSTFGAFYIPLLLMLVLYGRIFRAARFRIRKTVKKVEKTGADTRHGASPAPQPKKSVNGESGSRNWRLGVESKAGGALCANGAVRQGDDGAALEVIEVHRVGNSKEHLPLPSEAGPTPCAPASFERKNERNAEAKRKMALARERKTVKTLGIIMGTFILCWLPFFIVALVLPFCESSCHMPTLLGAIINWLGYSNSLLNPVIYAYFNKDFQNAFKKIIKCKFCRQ

h5-HT2C receptor [6] = target: T6, h5-HT2C receptor (Homo sapiens, UniProt P28335); assay: Inhibition of 5-HT-stimulated IP-1 formation; format: cell-based
T6 sequence (P28335 33-458): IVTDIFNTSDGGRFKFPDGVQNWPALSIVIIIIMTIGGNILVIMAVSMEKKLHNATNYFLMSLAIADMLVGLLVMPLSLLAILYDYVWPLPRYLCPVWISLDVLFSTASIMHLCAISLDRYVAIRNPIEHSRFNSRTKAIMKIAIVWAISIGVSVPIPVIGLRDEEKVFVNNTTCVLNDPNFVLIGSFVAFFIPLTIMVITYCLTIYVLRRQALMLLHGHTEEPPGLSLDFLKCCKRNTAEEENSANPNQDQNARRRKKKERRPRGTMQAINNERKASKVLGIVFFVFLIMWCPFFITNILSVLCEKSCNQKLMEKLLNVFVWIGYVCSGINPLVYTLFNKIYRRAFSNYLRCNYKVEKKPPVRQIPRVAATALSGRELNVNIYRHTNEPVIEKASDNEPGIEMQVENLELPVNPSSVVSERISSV

h5-HT1A receptor [7] = target: T5, h5-HT1A receptor; assay: Stimulation of [35S]GTPγS binding, HEK-h5-HT1A membranes; format: biochemical
hVMAT2 [8] = target: T3, hVMAT2; assay: Superfusion release of preloaded [3H]NE from HEK-hVMAT2 cells; format: cell-based
h5-HT2A receptor [9] = target: T2, h5-HT2A receptor; assay: [125I]DOI binding, HEK-h5-HT2A; conditions: read-out: Inhibition of radioligand binding Ki ± sem, h5-HT2A [125I]DOI
hVMAT2 [10] = target: T3, hVMAT2; assay: Inhibition of [3H]5-HT uptake, HEK-hVMAT2 membrane preparation; format: biochemical; conditions: read-out: Inhibition of [3H]5-HT uptake IC50 ± sem, hVMAT2; 40 nM [3H]5-HT, 2 mM MgATP
hDAT [11] = target: T7, hDAT (Homo sapiens, UniProt Q01959); assay: Inhibition of [3H]DA uptake, intact HEK-hDAT cells; format: cell-based
T7 sequence (Q01959 whole entry): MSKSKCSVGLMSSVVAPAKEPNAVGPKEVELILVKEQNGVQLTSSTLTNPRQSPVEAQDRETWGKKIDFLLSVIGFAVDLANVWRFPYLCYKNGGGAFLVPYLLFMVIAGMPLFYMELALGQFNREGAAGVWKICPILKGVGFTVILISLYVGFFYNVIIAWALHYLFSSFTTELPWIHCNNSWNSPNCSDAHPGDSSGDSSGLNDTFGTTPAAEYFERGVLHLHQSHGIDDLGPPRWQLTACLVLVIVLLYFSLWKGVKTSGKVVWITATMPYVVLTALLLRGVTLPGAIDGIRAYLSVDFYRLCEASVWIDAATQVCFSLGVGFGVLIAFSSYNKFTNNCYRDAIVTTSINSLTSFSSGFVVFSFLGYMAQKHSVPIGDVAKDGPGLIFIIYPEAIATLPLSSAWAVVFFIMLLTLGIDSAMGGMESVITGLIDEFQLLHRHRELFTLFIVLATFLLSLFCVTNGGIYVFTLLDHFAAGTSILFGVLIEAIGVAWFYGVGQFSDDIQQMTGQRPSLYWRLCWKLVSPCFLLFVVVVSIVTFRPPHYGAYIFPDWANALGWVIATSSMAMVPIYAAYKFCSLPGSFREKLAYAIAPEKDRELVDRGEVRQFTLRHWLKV

hSERT [12] = target: T1, hSERT; assay: Inhibition of [3H]5-HT uptake, intact HEK-hSERT cells; format: cell-based
hNET [13] = target: T4, hNET; assay: biochemical; format: binding; conditions: read-out: Inhibition of [125I]RTI-55 binding Ki ± sem, hNET; HEK-hNET membranes
hDAT [14] = target: T7, hDAT; assay: Inhibition of [125I]RTI-55 binding, HEK-hDAT membranes; conditions: read-out: Inhibition of [125I]RTI-55 binding Ki ± sem, hDAT; HEK-hDAT membranes
hDAT [15] = target: T7, hDAT; assay: Superfusion release of preloaded [3H]DA from HEK-hDAT cells; format: cell-based
hNET [16] = target: T4, hNET; assay: Superfusion release of preloaded [3H]NE from HEK-hNET cells; format: cell-based
h5-HT2C receptor [17] = target: T6, h5-HT2C receptor; assay: biochemical; format: binding
hSigma1 receptor = hSigma1 receptor (Homo sapiens, UniProt Q99720); assay: [3H]; format: binding; conditions: read-out: Inhibition of [3H]pentazocine binding Ki ± sem, hSigma1
Chain of hSigma1 receptor (Q99720 whole entry): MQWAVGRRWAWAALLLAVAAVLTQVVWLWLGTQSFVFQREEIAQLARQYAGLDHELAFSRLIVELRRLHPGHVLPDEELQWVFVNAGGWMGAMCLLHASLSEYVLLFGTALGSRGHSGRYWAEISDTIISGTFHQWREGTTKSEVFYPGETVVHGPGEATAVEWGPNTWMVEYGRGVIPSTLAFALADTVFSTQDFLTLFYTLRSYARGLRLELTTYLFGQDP

Chain of human DA D1 receptor (P21728 whole entry, the tested form may be a part): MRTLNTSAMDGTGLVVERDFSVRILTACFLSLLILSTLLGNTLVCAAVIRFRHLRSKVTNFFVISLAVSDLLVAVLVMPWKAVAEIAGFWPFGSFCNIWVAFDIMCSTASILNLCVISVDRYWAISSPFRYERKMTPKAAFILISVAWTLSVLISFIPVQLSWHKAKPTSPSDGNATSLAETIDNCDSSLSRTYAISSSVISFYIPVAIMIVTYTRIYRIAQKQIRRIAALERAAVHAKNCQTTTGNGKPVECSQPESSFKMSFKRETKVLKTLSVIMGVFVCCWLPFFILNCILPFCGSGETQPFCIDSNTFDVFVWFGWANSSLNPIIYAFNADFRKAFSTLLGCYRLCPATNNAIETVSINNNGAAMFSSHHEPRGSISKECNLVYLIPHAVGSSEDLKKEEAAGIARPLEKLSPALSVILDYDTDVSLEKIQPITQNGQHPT

Q: How did the “affinity for the [3H]SCH23390 binding site, DA D1 receptor” value (human DA D1 receptor) turn out when `Oc1cc2c(cc1O)C(c1ccccc1)CNCC2` (centres unmarked) [SKF38393] was run?
A: Its value is “high affinity”.

Q: What does the source list for `CCC(NC)C(=O)c1ccc2c(c1)OCO2` (centres unmarked) [Butylone]?
A: % maximum release ± sem, hSERT [3H]5-HT (hSERT [1]): 30.1 ± 6.5%; EC50 (hSERT [1]): 3.1 ± 1.4 µM; h5-HT2A Inhibition of 5-HT-stimulated IP-1 formation % maximum inhibition ± sem (h5-HT2A receptor [2]; normalized to maximal inhibition by ketanserin (10 µM)): 95.9 ± 4.1%; IC50 (h5-HT2A receptor [2]; read-out: h5-HT2A Inhibition of 5-HT-stimulated IP-1 formation IC50 ± sem): 410 ± 110 µM; Ki (hVMAT2 [3]): 730 ± 110 µM; ratio of binding Ki to uptake IC50, hNET (hNET [4]; [125I]RTI-55 Ki / [3H]NE uptake IC50): 7.5; IC50 (hNET [4]; read-out: Inhibition of [3H]neurotransmitter uptake IC50 ± sem, hNET [3H]NE, 20 nM [3H]NE, intact cells): 1.06 ± 0.24 µM; Ki (h5-HT1A receptor [5]): > 96 µM; h5-HT2C Inhibition of 5-HT-stimulated IP-1 formation % maximum inhibition ± sem (h5-HT2C receptor [6]; 100 nM 5-HT, normalized to maximal inhibition by SB242084 (1 µM)): 11 ± 12%; h5-HT1A Stimulation of [35S]GTPγS binding % maximum stimulation ± sem (h5-HT1A receptor [7]; normalized to the maximal stimulation by 5-HT): 52 ± 13%; EC50 (h5-HT1A receptor [7]; read-out: h5-HT1A Stimulation of [35S]GTPγS binding EC50 ± sem): 440 ± 110 µM; Release of [3H]NE % maximum release ± sem or range, hVMAT2 (hVMAT2 [8]): 17.4 ± 1.1%; EC50 (hVMAT2 [8]; read-out: Drug-induced release of [3H]NE EC50 ± sem, hVMAT2, superfusion): 4.4 ± 0.52 µM; Ki (h5-HT2A receptor [9]): 118 ± 17 µM; IC50 (hVMAT2 [10]): 162 ± 55 µM; ratio of binding Ki to uptake IC50, hDAT (hDAT [11]; [125I]RTI-55 Ki / [3H]DA uptake IC50): 8.2; IC50 (hDAT [11]; read-out: Inhibition of [3H]neurotransmitter uptake IC50 ± sem, hDAT [3H]DA, 20 nM [3H]DA, intact cells): 0.211 ± 0.054 µM; ratio of binding Ki to uptake IC50, hSERT (hSERT [12]; [125I]RTI-55 Ki / [3H]5-HT uptake IC50): 5.3; IC50 (hSERT [12]; read-out: Inhibition of [3H]neurotransmitter uptake IC50 ± sem, hSERT [3H]5-HT, 20 nM [3H]5-HT, intact cells): 1.97 ± 0.43 µM; Ki (hNET [13]): 7.98 ± 0.55 µM; Ki (hDAT [14]): 1.73 ± 0.27 µM; % maximum release ± sem, hDAT [3H]DA (hDAT [15]): 5.4 ± 3.8%; releasing efficacy, hDAT [3H]DA (hDAT [15]; concentrations ranging from 1 nM to 100 µM): minimal releasing efficacy; EC50 (hDAT [15]; read-out: Drug-induced release of [3H]neurotransmitter EC50 ± sem, hDAT [3H]DA, superfusion, AUC): > 10 µM; releasing efficacy, hNET [3H]NE (hNET [16]; concentrations ranging from 10 nM to 100 µM): minimal releasing efficacy; EC50 (hNET [16]; read-out: Drug-induced release of [3H]neurotransmitter EC50 ± sem, hNET [3H]NE, superfusion, AUC): > 100 µM; % maximum release ± sem, hNET [3H]NE (hNET [16]; relative to maximal AUC induced by METH (0.3 or 1 µM)): 3.6 ± 2.2%; Ki (h5-HT2C receptor [17]; read-out: Inhibition of radioligand binding Ki ± sem, h5-HT2C [125I]DOI): 41 ± 12 µM; Ki (hSigma1 receptor): 7.9 ± 1.8 µM

Q: With `CC(N)Cc1ccc(Cl)cc1` (centres unmarked) [PCA, p-chloroamphetamine, reference compound] as the compound, how does the “% maximum release ± sem, hSERT [3H]5-HT” value (hSERT [1]) read?
A: The value was 106.4 ± 2.0%.

Q: What about the EC50 (hSERT [1]) of the same compound?
A: Its EC50 is 0.8 ± 0.27 µM.

Q: Which Kd (h5-HT2C receptor [17]; read-out: Kd of radioligand, HEK-H5HT2C) does the source give for `COc1cc(CC(C)N)c(OC)cc1I` (racemic) [[^125I]DOI, (±)-1-(2,5,-dimethoxy-4-iodophenyl)-2-aminopropane, reference compound] here?
A: The Kd was 0.00418 ± 0.00046 µM.

Q: For `Cc1cc2c(cc1Cl)N(C(=O)Nc1ccc(Oc3cccnc3C)nc1)CC2` [SB242084, reference compound], which IC50 (h5-HT2C receptor [6]) is on record?
A: Its IC50 is 0.00028 ± 0.00012 µM.

Q: What about the Ki (h5-HT2C receptor [17]) of the same compound?
A: The Ki was 0.00247 µM.
